Measurements from patent publication US20050146723A1, “Method for measuring surface plasmon resonance” (FUJI PHOTO FILM CO., LTD., priority 2003, published 2005).

Tested on: trypsin
Assay: Evaluation of leupeptin-binding ability on trypsin-immobilized chip by surface plasmon resonance
Settings: 10 min after initiation of replacement
Procedure: The solution in the above-describe dextran measurement chip was removed therefrom. Thereafter, 70 μl of a mixed solution consisting of 200 mM EDC (N-ethyl-N′-(3-dimethylaminopropyl)carbodiimide hydrochloride) and 50 mM NHS (N-hydroxysuccinimide) was added to the measurement chip, and it was then left for 10 minutes. The mixed solution was removed from the measurement chip, and the chip was then washed with 100 μl of water 3 times, and then with 100 μl of buffer 1 (100 mM HEPES (N-2-hydroxyethylpiperazin-N′-2-ethanesulfonic acid), 150 mM NaCl, 10 mM CaCl2) 3 times. The chip containing 100 μl of buffer 1 was installed in the surface plasmon resonance measurement device of the present invention. The inside of the chip was replaced with a trypsin solution (produced by dissolving trypsin in buffer 1 to a concentration of 1 mg/ml), and it was then left for 30 minutes, so as to immobilize trypsin. Thereafter, the inside of the chip was replaced with a 1 M ethanolamine solution, and it was then left for 10 minutes. Thereafter, the inside of the chip was washed with 100 μl of buffer 1 ten times. The amount of a change in resonance signals due to immobilization of trypsin was 2,000 RU.
With regard to the trypsin-immobilized chip of the present invention, the dielectric block was capped with silicon rubber, so as to produce a cell with an internal volume of 15 μl. In the case of such a block cell, the volume of the cell is determined with a space surrounded by the measurement chip and the cap. Two holes each having a diameter of 1 mm were formed through the silicon rubber used as a cap, and a Teflon tube having an inside diameter of 0.5 mm and an outside diameter of 1 mm was passed through each of these holes, so as to produce a flow channel. Likewise, a cap and a flow channel were produced for a reference chip. Thereafter, the two chips were connected in series, so as to produce a flow channel system. Each of the two chips in this flow channel system was installed in the surface plasmon resonance measurement device of the present invention.
The inside of the flow channel system was filled with buffer 2 (10 mM HEPES, 150 mM NaCl). Defining the state before the exchange of the liquid as a standard, a change in signals was measured at intervals of 0.5 seconds. The inside of the flow channel system was replaced with a leupeptin solution produced by dissolving leupeptin in buffer 2 to a concentration of 1 μg/ml) by each method described in Table 1. The level of noise generated on the reference chip side at 2 to 10 minutes after initiation of the replacement, and changes in signals on the trypsin-immobilized chip side and on the reference chip side at 10 minutes after initiation of the replacement, are shown in Table 1. In order to obtain binding detection data with high reliability, it is preferable that the width of noise level (the difference between the maximum and the minimum in a change in signals) be within 10 RU, and that the base line fluctuation, that is, the change in signals on the reference chip side be within 10 RU. More preferably, the above values are both within 5 RU.
The inside of the flow channel system was filled with buffer 2 (10 mM HBPES, 150 mM NaCl). Defining the state before the exchange of the liquid as a standard, a change in signals was measured at intervals of 0.5 seconds. The inside of the flow channel system was replaced with a leupeptin solution (produced by dissolving leupeptin in buffer 2 to a concentration of 1 μg ml) by each method described in Table 2. The level of noise generated on the reference chip side at 2 to 10 minutes after initiation of the replacement, and changes in signals on the trypsin-immobilized chip side and on the reference chip side at 10 minutes after initiation of the replacement, are shown in Table 2. […]

Compound: CC(=O)N[C@@H](CC(C)C)C(=O)N[C@@H](CC(C)C)C(=O)N[C@H](C=O)CCCNC(=N)N [leupeptin]
- Signal change Immobilized chip (Table 1 method No. 1: leupeptin 1 μg/ml, flow 4 ml/min, exchange 0.125 min, termination 9.875 min, Ve/Vs 16.7): 19 RU
- Signal change Immobilized chip (Table 1 method No. 2: leupeptin 1 μg/ml, flow 4 ml/min, exchange 0.25 min, termination 9.75 min, Ve/Vs 33.3): 21 RU
- Signal change Immobilized chip (Table 1 method No. 3: leupeptin 1 μg/ml, flow 4 ml/min, exchange 1 min, termination 9 min, Ve/Vs 133.3): 20 RU
- Signal change Immobilized chip (Table 1 method No. 4: leupeptin 1 μg/ml, flow 4 ml/min, exchange 1.5 min, termination 8.5 min, Ve/Vs 200.0): 21 RU
- Signal change Immobilized chip (Table 1 method No. 5 (comparative): leupeptin 1 μg/ml, flow 4 ml/min, exchange 10 min, termination 0 min, Ve/Vs 1333.3): 12 RU
- Signal change Immobilized chip (Table 1 method No. 6 (comparative): leupeptin 1 μg/ml, flow 2 ml/min, exchange 10 min, termination 0 min, Ve/Vs 666.7): 25 RU
- Signal change Immobilized chip (Table 1 method No. 7 (comparative): leupeptin 1 μg/ml, flow 1 ml/min, exchange 10 min, termination 0 min, Ve/Vs 333.3): 18 RU
- Signal change Immobilized chip (Table 1 method No. 8 (comparative): leupeptin 1 μg/ml, flow 0.5 ml/min, exchange 10 min, termination 0 min, Ve/Vs 166.7): 26 RU
- Signal change Immobilized chip (Table 2 method No. 1: leupeptin 1 μg ml, flow 4 ml/min, exchange 0.125 min, termination 9.875 min, Ve/Vs 16.7): 19 RU
- Signal change Immobilized chip (Table 2 method No. 2: leupeptin 1 μg ml, flow 4 ml/min, exchange 0.25 min, termination 9.75 min, Ve/Vs 33.3): 21 RU
- Signal change Immobilized chip (Table 2 method No. 3 (comparative): leupeptin 1 μg ml, flow 4 ml/min, exchange 10 min, termination 0 min, Ve/Vs 1333.3): 12 RU
- Signal change Immobilized chip (Table 2 method No. 4 (comparative): leupeptin 1 μg ml, flow 2 ml/min, exchange 10 min, termination 0 min, Ve/Vs 666.7): 25 RU
- Signal change Immobilized chip (Table 2 method No. 5 (comparative): leupeptin 1 μg ml, flow 1 ml/min, exchange 10 min, termination 0 min, Ve/Vs 333.3): 18 RU
- Signal change Immobilized chip (Table 2 method No. 6 (comparative): leupeptin 1 μg ml, flow 0.5 ml/min, exchange 10 min, termination 0 min, Ve/Vs 166.7): 26 RU
- Signal change Immobilized chip (Table 2 method No. 7: leupeptin 1 μg ml, flow 0.2 ml/min, exchange 10 min, termination 0 min, Ve/Vs 66.7): 22 RU
- Signal change Immobilized chip (Table 2 method No. 8: leupeptin 1 μg ml, flow 0.1 ml/min, exchange 10 min, termination 0 min, Ve/Vs 33.3): 20 RU
